Test results: PubChem BioAssay (NCI)
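A five-concentration, 48-hour dose response in 96-well plates underlies each endpoint, interpolated linearly between surrounding concentrations. The concentration for full growth arrest is given as TGI.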

How the values were obtained:
Test in all cases: NCI-60 cell line screen, 48 h
[1] = test system: 786-0 renal
[2] = test system: A498 renal
[3] = test system: A549 NSCLC
[4] = test system: ACHN renal
[5] = test system: CAKI-1 renal
[6] = test system: CCRF-CEM leukemia
[7] = test system: COLO 205 colon
[8] = test system: DLD-1 colon
[9] = test system: DMS 114 small cell lung
[10] = test system: DMS 273 small cell lung
[11] = test system: EKVX NSCLC
[12] = test system: HCC-2998 colon
[13] = test system: HCT-15 colon
[14] = test system: HL-60(TB) leukemia
[15] = test system: HOP-18 NSCLC
[16] = test system: HOP-62 NSCLC
[17] = test system: HOP-92 NSCLC
[18] = test system: HT29 colon
[19] = test system: IGROV1 ovarian
[20] = test system: K-562 leukemia
[21] = test system: KM12 colon
[22] = test system: KM20L2 colon
[23] = test system: LOX IMVI melanoma
[24] = test system: LXFL 529 NSCLC
[25] = test system: M14 melanoma
[26] = test system: M19-MEL melanoma
[27] = test system: MALME-3M melanoma
[28] = test system: MOLT-4 leukemia
[29] = test system: NCI-H226 lung
[30] = test system: NCI-H23 lung
[31] = test system: NCI-H460 lung
[32] = test system: NCI-H522 lung
[33] = test system: OVCAR-3 ovarian
[34] = test system: OVCAR-4 ovarian
[35] = test system: OVCAR-5 ovarian
[36] = test system: RPMI-8226 leukemia
[37] = test system: SF-268 CNS
[38] = test system: SF-295 CNS
[39] = test system: SF-539 CNS
[40] = test system: SK-MEL-2 melanoma
[41] = test system: SK-MEL-28 melanoma
[42] = test system: SK-MEL-5 melanoma
[43] = test system: SK-OV-3 ovarian
[44] = test system: SNB-19 CNS
[45] = test system: SNB-78 CNS
[46] = test system: SW-620 colon
[47] = test system: TK-10 renal
[48] = test system: U251 CNS
[49] = test system: UACC-257 melanoma
[50] = test system: UACC-62 melanoma
[51] = test system: UO-31 renal
[52] = test system: XF 498 CNS
[53] = test system: HCT-116 colon
[54] = test system: OVCAR-8 ovarian
[55] = test system: RXF 393 renal
[56] = test system: SNB-75 CNS
[57] = test system: SN12C renal

Measured: TGI

CC1=Nn2c(nnc2-c2ccc(Cl)cc2)NC(C)(C)C1
> 100 µM: [1] | [2] | [3] | [4] | [5] | [6] | [7] | [8] | [9] | [10] | [11] | [12] | [13] | [14] | [15] | [16] | [17] | [18] | [19] | [20] | [21] | [22] | [23] | [24] | [25] | [26] | [27] | [28] | [29] | [30] | [31] | [32] | [33] | [34] | [35] | [36] | [37] | [38] | [39] | [40] | [41] | [42] | [43] | [44] | [45] | [46] | [47] | [48] | [49] | [50] | [51] | [52]

CCOC(=O)C1(C(=O)OCC)OC(=O)NC2=C1CCCC2
> 100 µM: [1] | [2] | [3] | [4] | [6] | [7] | [8] | [9] | [10] | [11] | [12] | [53] | [14] | [15] | [16] | [17] | [18] | [19] | [20] | [21] | [22] | [23] | [24] | [26] | [27] | [28] | [30] | [31] | [32] | [33] | [35] | [54] | [36] | [55] | [37] | [38] | [39] | [40] | [41] | [42] | [43] | [44] | [56] | [45] | [46] | [47] | [48] | [49] | [51] | [52]

Cn1nc(N)nc1N=S(C)(C)=N
> 100 µM: [1] | [2] | [3] | [4] | [5] | [6] | [7] | [9] | [10] | [11] | [12] | [13] | [14] | [15] | [16] | [17] | [18] | [19] | [20] | [21] | [22] | [24] | [25] | [27] | [28] | [29] | [30] | [31] | [32] | [33] | [34] | [35] | [54] | [36] | [55] | [37] | [38] | [39] | [40] | [41] | [42] | [43] | [57] | [44] | [56] | [45] | [46] | [47] | [48] | [49] | [50] | [51] | [52]
